Measured values: US7118895B2, “Process for producing aglycon by using diglycosidase and flavor-improved food containing the aglycon and converting agent to be used in the process” (Amano Enzyme Inc., priority 2000, dated 2006)

Test system: Crude diglycosidase
Experiment: Examination of pH in the conversion into isoflavone aglycons by diglycosidase using soybean materials
Format: biochemical, Penicillium multicolor IAM7153
Settings: for Decomposition efficiency of glycitin family in roasted soy flour / Decomposition efficiency of glycitin family in soymilk: 55° C.
In short: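 Suspensions of 50 mg roasted soy flour, soymilk, defatted soybean or concentrated soy protein were brought to pH 2 to 11 with HCl or NaOH and reacted at 55° C with crude diglycosidase (enzyme solution at 1.88 AU/mL, same pH). Ethanol-stopped samples at 0, 1, 3 and 6 h were analysed by HPLC.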

[1] = pH6.6, heat treatment of enzyme: no, reaction time 0 h
[2] = pH6.6, heat treatment of enzyme: no, reaction time 1 h
[3] = pH6.6, heat treatment of enzyme: no, reaction time 3 h
[4] = pH6.6, heat treatment of enzyme: no, reaction time 6 h
[5] = pH6.6, heat treatment of enzyme: yes, reaction time 6 h

Decomposition efficiency of glycitin family in concentrated soybean protein (pH1.6, heat treatment of enzyme: no, reaction time 0 h): 0.4%
Decomposition efficiency of glycitin family in concentrated soybean protein (pH1.6, heat treatment of enzyme: no, reaction time 1 h): 0.4%
Decomposition efficiency of glycitin family in concentrated soybean protein (pH1.6, heat treatment of enzyme: no, reaction time 3 h): 0.4%
Decomposition efficiency of glycitin family in concentrated soybean protein (pH1.6, heat treatment of enzyme: no, reaction time 6 h): 0.4%
Decomposition efficiency of glycitin family in concentrated soybean protein (pH1.6, heat treatment of enzyme: yes, reaction time 6 h): 0.4%
Decomposition efficiency of glycitin family in roasted soy flour (pH2, heat treatment of enzyme no, reaction time 0 h): not detected
Decomposition efficiency of glycitin family in roasted soy flour (pH2, heat treatment of enzyme no, reaction time 1 h): not detected
Decomposition efficiency of glycitin family in roasted soy flour (pH2, heat treatment of enzyme no, reaction time 3 h): not detected
Decomposition efficiency of glycitin family in roasted soy flour (pH2, heat treatment of enzyme no, reaction time 6 h): not detected
Decomposition efficiency of glycitin family in roasted soy flour (pH2, heat treatment of enzyme yes, reaction time 6 h): not detected
Decomposition efficiency of glycitin family in soymilk (pH2.3, heat treatment of enzyme no, reaction time 0 h): 42.6
Decomposition efficiency of glycitin family in soymilk (pH2.3, heat treatment of enzyme no, reaction time 1 h): 51.3
Decomposition efficiency of glycitin family in soymilk (pH2.3, heat treatment of enzyme no, reaction time 3 h): 47.7
Decomposition efficiency of glycitin family in soymilk (pH2.3, heat treatment of enzyme no, reaction time 6 h): 46.5
Decomposition efficiency of glycitin family in soymilk (pH2.3, heat treatment of enzyme yes, reaction time 6 h): 41.3
Decomposition efficiency of glycitin family in defatted soybean (pH2.6, heat treatment of enzyme: no, reaction time 0 h): 100.0%
Decomposition efficiency of glycitin family in defatted soybean (pH2.6, heat treatment of enzyme: no, reaction time 1 h): 100.0%
Decomposition efficiency of glycitin family in defatted soybean (pH2.6, heat treatment of enzyme: no, reaction time 3 h): 100.0%
Decomposition efficiency of glycitin family in defatted soybean (pH2.6, heat treatment of enzyme: no, reaction time 6 h): 100.0%
Decomposition efficiency of glycitin family in defatted soybean (pH2.6, heat treatment of enzyme: yes, reaction time 6 h): 100.0%
Decomposition efficiency of glycitin family in concentrated soybean protein (pH2.7, heat treatment of enzyme: no, reaction time 0 h): 0.4%
Decomposition efficiency of glycitin family in concentrated soybean protein (pH2.7, heat treatment of enzyme: no, reaction time 1 h): 0.5%
Decomposition efficiency of glycitin family in concentrated soybean protein (pH2.7, heat treatment of enzyme: no, reaction time 3 h): 0.5%
Decomposition efficiency of glycitin family in concentrated soybean protein (pH2.7, heat treatment of enzyme: no, reaction time 6 h): 0.5%
Decomposition efficiency of glycitin family in concentrated soybean protein (pH2.7, heat treatment of enzyme: yes, reaction time 6 h): 0.4%
Decomposition efficiency of glycitin family in roasted soy flour (pH3, heat treatment of enzyme no, reaction time 0 h): not detected
Decomposition efficiency of glycitin family in roasted soy flour (pH3, heat treatment of enzyme no, reaction time 1 h): not detected
Decomposition efficiency of glycitin family in roasted soy flour (pH3, heat treatment of enzyme no, reaction time 3 h): not detected
Decomposition efficiency of glycitin family in roasted soy flour (pH3, heat treatment of enzyme no, reaction time 6 h): not detected
Decomposition efficiency of glycitin family in roasted soy flour (pH3, heat treatment of enzyme yes, reaction time 6 h): not detected
Decomposition efficiency of glycitin family in defatted soybean (pH3.4, heat treatment of enzyme: no, reaction time 0 h): 100.0%
Decomposition efficiency of glycitin family in defatted soybean (pH3.4, heat treatment of enzyme: no, reaction time 1 h): 100.0%
Decomposition efficiency of glycitin family in defatted soybean (pH3.4, heat treatment of enzyme: no, reaction time 3 h): 100.0%
Decomposition efficiency of glycitin family in defatted soybean (pH3.4, heat treatment of enzyme: no, reaction time 6 h): 100.0%
Decomposition efficiency of glycitin family in defatted soybean (pH3.4, heat treatment of enzyme: yes, reaction time 6 h): 100.0%
Decomposition efficiency of glycitin family in soymilk (pH3.5, heat treatment of enzyme no, reaction time 0 h): 42.6
Decomposition efficiency of glycitin family in soymilk (pH3.5, heat treatment of enzyme no, reaction time 1 h): 21.9
Decomposition efficiency of glycitin family in soymilk (pH3.5, heat treatment of enzyme no, reaction time 3 h): not detected
Decomposition efficiency of glycitin family in soymilk (pH3.5, heat treatment of enzyme no, reaction time 6 h): not detected
Decomposition efficiency of glycitin family in soymilk (pH3.5, heat treatment of enzyme yes, reaction time 6 h): 38.2
Decomposition efficiency of glycitin family in concentrated soybean protein (pH3.7, heat treatment of enzyme: no, reaction time 0 h): 0.4%
Decomposition efficiency of glycitin family in concentrated soybean protein (pH3.7, heat treatment of enzyme: no, reaction time 1 h): 0.5%
Decomposition efficiency of glycitin family in concentrated soybean protein (pH3.7, heat treatment of enzyme: no, reaction time 3 h): 0.4%
Decomposition efficiency of glycitin family in concentrated soybean protein (pH3.7, heat treatment of enzyme: no, reaction time 6 h): 0.4%
Decomposition efficiency of glycitin family in concentrated soybean protein (pH3.7, heat treatment of enzyme: yes, reaction time 6 h): 0.4%
Decomposition efficiency of glycitin family in roasted soy flour (pH4, heat treatment of enzyme no, reaction time 0 h): not detected
Decomposition efficiency of glycitin family in roasted soy flour (pH4, heat treatment of enzyme no, reaction time 1 h): not detected
Decomposition efficiency of glycitin family in roasted soy flour (pH4, heat treatment of enzyme no, reaction time 3 h): not detected
Decomposition efficiency of glycitin family in roasted soy flour (pH4, heat treatment of enzyme no, reaction time 6 h): not detected
Decomposition efficiency of glycitin family in roasted soy flour (pH4, heat treatment of enzyme yes, reaction time 6 h): not detected
Decomposition efficiency of glycitin family in soymilk (pH4.8, heat treatment of enzyme no, reaction time 0 h): 43.2
Decomposition efficiency of glycitin family in soymilk (pH4.8, heat treatment of enzyme no, reaction time 1 h): 37.0
Decomposition efficiency of glycitin family in soymilk (pH4.8, heat treatment of enzyme no, reaction time 3 h): 21.1
Decomposition efficiency of glycitin family in soymilk (pH4.8, heat treatment of enzyme no, reaction time 6 h): 8.3
Decomposition efficiency of glycitin family in soymilk (pH4.8, heat treatment of enzyme yes, reaction time 6 h): 39.2
Decomposition efficiency of glycitin family in defatted soybean (pH4.8, heat treatment of enzyme: no, reaction time 0 h): 64.0%
Decomposition efficiency of glycitin family in defatted soybean (pH4.8, heat treatment of enzyme: no, reaction time 1 h): 40.1%
Decomposition efficiency of glycitin family in defatted soybean (pH4.8, heat treatment of enzyme: no, reaction time 3 h): 37.5%
Decomposition efficiency of glycitin family in defatted soybean (pH4.8, heat treatment of enzyme: no, reaction time 6 h): 31.9%
Decomposition efficiency of glycitin family in defatted soybean (pH4.8, heat treatment of enzyme: yes, reaction time 6 h): 56.2%
Decomposition efficiency of glycitin family in roasted soy flour (pH5, heat treatment of enzyme no, reaction time 0 h): not detected
Decomposition efficiency of glycitin family in roasted soy flour (pH5, heat treatment of enzyme no, reaction time 1 h): not detected
Decomposition efficiency of glycitin family in roasted soy flour (pH5, heat treatment of enzyme no, reaction time 3 h): not detected
Decomposition efficiency of glycitin family in roasted soy flour (pH5, heat treatment of enzyme no, reaction time 6 h): not detected
Decomposition efficiency of glycitin family in roasted soy flour (pH5, heat treatment of enzyme yes, reaction time 6 h): not detected
Decomposition efficiency of glycitin family in concentrated soybean protein (pH5.1, heat treatment of enzyme: no, reaction time 0 h): 0.4%
Decomposition efficiency of glycitin family in concentrated soybean protein (pH5.1, heat treatment of enzyme: no, reaction time 1 h): 0.6%
Decomposition efficiency of glycitin family in concentrated soybean protein (pH5.1, heat treatment of enzyme: no, reaction time 3 h): 0.6%
Decomposition efficiency of glycitin family in concentrated soybean protein (pH5.1, heat treatment of enzyme: no, reaction time 6 h): 0.6%
Decomposition efficiency of glycitin family in concentrated soybean protein (pH5.1, heat treatment of enzyme: yes, reaction time 6 h): 0.4%
Decomposition efficiency of glycitin family in defatted soybean (pH5.4, heat treatment of enzyme: no, reaction time 0 h): 64.0%
Decomposition efficiency of glycitin family in defatted soybean (pH5.4, heat treatment of enzyme: no, reaction time 1 h): 45.1%
Decomposition efficiency of glycitin family in defatted soybean (pH5.4, heat treatment of enzyme: no, reaction time 3 h): 100.0%
Decomposition efficiency of glycitin family in defatted soybean (pH5.4, heat treatment of enzyme: no, reaction time 6 h): 32.3%
Decomposition efficiency of glycitin family in defatted soybean (pH5.4, heat treatment of enzyme: yes, reaction time 6 h): 39.3%
Decomposition efficiency of glycitin family in soymilk (pH6.2, heat treatment of enzyme no, reaction time 0 h): 43.2
Decomposition efficiency of glycitin family in soymilk (pH6.2, heat treatment of enzyme no, reaction time 1 h): 46.4
Decomposition efficiency of glycitin family in soymilk (pH6.2, heat treatment of enzyme no, reaction time 3 h): 34.5
Decomposition efficiency of glycitin family in soymilk (pH6.2, heat treatment of enzyme no, reaction time 6 h): 29.6
Decomposition efficiency of glycitin family in soymilk (pH6.2, heat treatment of enzyme yes, reaction time 6 h): 37.6
Decomposition efficiency of glycitin family in roasted soy flour (pH6.5, heat treatment of enzyme no, reaction time 0 h): not detected
Decomposition efficiency of glycitin family in roasted soy flour (pH6.5, heat treatment of enzyme no, reaction time 1 h): not detected
Decomposition efficiency of glycitin family in roasted soy flour (pH6.5, heat treatment of enzyme no, reaction time 3 h): not detected
Decomposition efficiency of glycitin family in roasted soy flour (pH6.5, heat treatment of enzyme no, reaction time 6 h): not detected
Decomposition efficiency of glycitin family in roasted soy flour (pH6.5, heat treatment of enzyme yes, reaction time 6 h): not detected
Decomposition efficiency of glycitin family in concentrated soybean protein [1]: 0.4%
Decomposition efficiency of glycitin family in defatted soybean [1]: 39.6%
Decomposition efficiency of glycitin family in concentrated soybean protein [2]: 0.4%
Decomposition efficiency of glycitin family in defatted soybean [2]: 52.9%
Decomposition efficiency of glycitin family in concentrated soybean protein [3]: 0.4%
Decomposition efficiency of glycitin family in defatted soybean [3]: 53.6%
Decomposition efficiency of glycitin family in concentrated soybean protein [4]: 0.4%
Decomposition efficiency of glycitin family in defatted soybean [4]: 58.1%
Decomposition efficiency of glycitin family in concentrated soybean protein [5]: 0.4%
Decomposition efficiency of glycitin family in defatted soybean [5]: 50.3%
Decomposition efficiency of glycitin family in soymilk (pH7.2, heat treatment of enzyme no, reaction time 0 h): 43.9
Decomposition efficiency of glycitin family in soymilk (pH7.2, heat treatment of enzyme no, reaction time 1 h): 48.8
Decomposition efficiency of glycitin family in soymilk (pH7.2, heat treatment of enzyme no, reaction time 3 h): 46.2
Decomposition efficiency of glycitin family in soymilk (pH7.2, heat treatment of enzyme no, reaction time 6 h): 41.6
Decomposition efficiency of glycitin family in soymilk (pH7.2, heat treatment of enzyme yes, reaction time 6 h): 37.5
Decomposition efficiency of glycitin family in defatted soybean (pH7.8, heat treatment of enzyme: no, reaction time 0 h): 66.8%
Decomposition efficiency of glycitin family in defatted soybean (pH7.8, heat treatment of enzyme: no, reaction time 1 h): 57.5%
Decomposition efficiency of glycitin family in defatted soybean (pH7.8, heat treatment of enzyme: no, reaction time 3 h): 53.2%
Decomposition efficiency of glycitin family in defatted soybean (pH7.8, heat treatment of enzyme: no, reaction time 6 h): 49.1%
Decomposition efficiency of glycitin family in defatted soybean (pH7.8, heat treatment of enzyme: yes, reaction time 6 h): 55.8%
Decomposition efficiency of glycitin family in roasted soy flour (pH8.5, heat treatment of enzyme no, reaction time 0 h): not detected
Decomposition efficiency of glycitin family in roasted soy flour (pH8.5, heat treatment of enzyme no, reaction time 1 h): not detected
Decomposition efficiency of glycitin family in roasted soy flour (pH8.5, heat treatment of enzyme no, reaction time 3 h): not detected
Decomposition efficiency of glycitin family in roasted soy flour (pH8.5, heat treatment of enzyme no, reaction time 6 h): not detected
Decomposition efficiency of glycitin family in roasted soy flour (pH8.5, heat treatment of enzyme yes, reaction time 6 h): not detected
Decomposition efficiency of glycitin family in concentrated soybean protein (pH8.6, heat treatment of enzyme: no, reaction time 0 h): 0.4%
Decomposition efficiency of glycitin family in concentrated soybean protein (pH8.6, heat treatment of enzyme: no, reaction time 1 h): 0.4%
Decomposition efficiency of glycitin family in concentrated soybean protein (pH8.6, heat treatment of enzyme: no, reaction time 3 h): 0.4%
Decomposition efficiency of glycitin family in concentrated soybean protein (pH8.6, heat treatment of enzyme: no, reaction time 6 h): 0.4%
Decomposition efficiency of glycitin family in concentrated soybean protein (pH8.6, heat treatment of enzyme: yes, reaction time 6 h): 0.3%
Decomposition efficiency of glycitin family in soymilk (pH11.6, heat treatment of enzyme no, reaction time 0 h): 39.4
Decomposition efficiency of glycitin family in soymilk (pH11.6, heat treatment of enzyme no, reaction time 1 h): 50.4
Decomposition efficiency of glycitin family in soymilk (pH11.6, heat treatment of enzyme no, reaction time 3 h): 46.5
Decomposition efficiency of glycitin family in soymilk (pH11.6, heat treatment of enzyme no, reaction time 6 h): 44.0
Decomposition efficiency of glycitin family in soymilk (pH11.6, heat treatment of enzyme yes, reaction time 6 h): 34.4
SMILES: COc1cc2c(=O)c(-c3ccc(O)cc3)coc2cc1O[C@@H]1O[C@H](COC(=O)CC(=O)O)[C@@H](O)[C@H](O)[C@H]1O [malonylglycitin, 6″-O-malonylglycitin]
